Patent US10828315B2 (Madrigal Pharmaceuticals, Inc., priority 2013, dated 2020)
“And” between values parts separate entries of the source, which are not always exact repeats. Identical values can stand only once.

Legend:
[1] = Mouse plasma stability protocol, up to 1 h (Examples 16-18)
HER2 = HER2 degradation assay with BT-474 cell line (Example 12, FACS); format: cell-based, human
[2] = % Remaining of parent after 1 h incubation in mouse plasma at 37° C. (10 μM)

In the case of CCNC(=O)c1nnc(-c2cc(C(C)C)c(O)cc2O)n1-c1ccc(Oc2ccc(OC(=O)N(C)CCOC(=O)Nc3cccc4c3CN(C3CCC(=O)NC3=O)C4=O)cc2)cc1 (stereo not shown), the “% Remaining (1 h)” value [1, 2] is reported as 51.2% and the IC50 (HER2) is reported as 2.86 µM.
With CCc1c2c(nc3ccc(O)cc13)-c1cc3c(c(=O)n1C2)COC(=O)C3(CC)OC(=O)CN1CCC(Cc2ccc(-n3c(O)nnc3-c3cc(C(C)C)c(O)cc3O)cc2)CC1 (stereo not shown) [SDC-TRAP-0071, 4,11-diethyl-9-hydroxy-3,14-dioxo-3,4,12,14-tetrahydro-1H-pyrano[3′,4′:6,7]indolizino[1,2-b]quinolin-4-yl 2-(4-(4-(3-(2,4-dihydroxy-5-isopropylphenyl)-5-hydroxy-4H-1,2,4-triazol-4-yl)benzyl)piperidin-1-yl)acetate] the “% Remaining (1 h)” value [1, 2] was 102%, the “% Remaining (1 h, 37° C.)” value ([1]; mouse plasma, 37° C.) was 102% and the IC50 (HER2) was 0.307 µM.
For CCc1c2c(nc3ccc(O)cc13)-c1cc3c(c(=O)n1C2)COC(=O)[C@@]3(CC)OC(=O)N1CCC(CCc2ccc(-n3c(O)nnc3-c3cc(C(C)C)c(O)cc3O)cc2)CC1 [SDC-TRAP-0104, (S)-4,11-diethyl-9-hydroxy-3,14-dioxo-3,4,12,14-tetrahydro-1H-pyrano[3′,4′:6,7]indolizino[1,2-b]quinolin-4-yl 4-(4-(3-(2,4-dihydroxy-5-isopropylphenyl)-5-hydroxy-4H-1,2,4-triazol-4-yl)phenethyl)piperidine-1-carboxylate], the “% Remaining (1 h)” value [1, 2] was 95.5%, the “% Remaining (1 h, 37° C.)” value ([1]; mouse plasma, 37° C.) was 95.5% and the IC50 (HER2) was 0.35 µM.
For CCNC(=O)c1nnc(-c2cc(C(C)C)c(O)cc2O)n1-c1ccc(Oc2ccc(N(C)C(=O)Oc3ccc4nc5c(c(CC)c4c3)Cn3c-5cc4c(c3=O)COC(=O)[C@]4(O)CC)cc2)cc1 [SDC-TRAP-0145, (S)-4,11-diethyl-4-hydroxy-3,14-dioxo-3,4,12,14-tetrahydro-1H-pyrano[3′,4′:6,7]indolizino[1,2-b]quinolin-9-yl (4-(4-(3-(2,4-dihydroxy-5-isopropylphenyl)-5-(ethylcarbamoyl)-4H-1,2,4-triazol-4-yl)phenoxy)phenyl)(methyl)carbamate], the “% Remaining (1 h)” value [1, 2] was 14.1%, the “% Remaining (1 h, 37° C.)” value ([1]; mouse plasma, 37° C.) was 14.1% and the IC50 (HER2) was 0.183 µM.
In the case of CCNC(=O)c1nnc(-c2cc(C(C)C)c(O)cc2O)n1-c1ccc(Oc2ccc(C(=O)N3CCC(C(=O)OC4(CC)C(=O)OCc5c4cc4n(c5=O)Cc5cc6c(CN(C)C)c(O)ccc6nc5-4)CC3)cc2)cc1 (stereo not shown) [SDC-TRAP-0159, 10-((dimethylamino)methyl)-4-ethyl-9-hydroxy-3,14-dioxo-3,4,12,14-tetrahydro-1H-pyrano[3′,4′:6,7]indolizino[1,2-b]quinolin-4-yl-1-(4-(4-(3-(2,4-dihydroxy-5-isopropylphenyl)-5-(ethylcarbamoyl)-4H-1,2,4-triazol-4-yl)phenoxy)benzoyl)piperidine-4-carboxylate], the “% Remaining (1 h)” value [1, 2] is reported as 121% and the IC50 (HER2) is reported as over 1 µM.
Compound CCNC(=O)c1nnc(-c2cc(C(C)C)c(O)cc2O)n1-c1ccc(Oc2ccc(C(=O)N(C)CCC(=O)OC3(CC)C(=O)OCc4c3cc3n(c4=O)Cc4c-3nc3ccc(O)cc3c4CC)cc2)cc1 (stereo not shown) [SDC-TRAP-0169, 4,11-diethyl-9-hydroxy-3,14-dioxo-3,4,12,14-tetrahydro-1H-pyrano[3′,4′:6,7]indolizino[1,2-b]quinolin-4-yl 3-(4-(4-(3-(2,4-dihydroxy-5-isopropylphenyl)-5-(ethylcarbamoyl)-4H-1,2,4-triazol-4-yl)phenoxy)-N-methylbenzamido)propanoate] has an IC50 (HER2) of 0.611 µM.
With CCNC(=O)c1nnc(-c2cc(C(C)C)c(O)cc2O)n1-c1ccc(CN2CCC(C(=O)N3CCC(N(C)C(=O)Oc4ccc5nc6c(c(CC)c5c4)Cn4c-6cc5c(c4=O)COC(=O)C5(O)CC)CC3)CC2)cc1 (stereo not shown) [SDC-TRAP-0172, 4,11-diethyl-4-hydroxy-3,14-dioxo-3,4,12,14-tetrahydro-1H-pyrano[3′,4′:6,7]indolizino[1,2-b]quinolin-9-yl (1-(1-(4-(3-(2,4-dihydroxy-5-isopropylphenyl)-5-(ethylcarbamoyl)-4H-1,2,4-triazol-4-yl)benzyl)piperidine-4-carbonyl)piperidin-4-yl)(methyl) carbamate] the “% Remaining (1 h)” value [1, 2] was 74.7%, the “% Remaining (1 h)” value ([1]; mouse plasma, 37° C., 10 μM) was 74.7% and the “% Remaining (1 h, 37° C.)” value ([1]; mouse plasma, 37° C.) was 74.7%. For the same compound, the IC50 (HER2) was < 0.078 µM and 0.056 µM.
Compound CCNC(=O)c1nnc(-c2cc(C(C)C)c(O)cc2O)n1-c1ccc(C(=O)N2CCN(c3ccc(OC(=O)Nc4cccc5c4CN(C4CCC(=O)NC4=O)C5=O)c(OC)c3)CC2)cc1 (stereo not shown) [SDC-TRAP-0173, 4-(4-(4-(3-(2,4-dihydroxy-5-isopropylphenyl)-5-(ethylcarbamoyl)-4H-1,2,4-triazol-4-yl)benzoyl)piperazin-1-yl)-2-methoxyphenyl (2-(2,6-dioxopiperidin-3-yl)-1-oxoisoindolin-4-yl)carbamate] has an IC50 (HER2) of 0.323 µM.
CCNC(=O)c1nnc(-c2cc(C(C)C)c(O)cc2O)n1-c1ccc(C(=O)N2CCN(c3ccc(OC(=O)Nc4cccc5c4CN(C4CCC(=O)NC4=O)C5=O)c(C)c3)CC2)cc1 (stereo not shown) [SDC-TRAP-0176, 4-(4-(4-(3-(2,4-dihydroxy-5-isopropylphenyl)-5-(ethylcarbamoyl)-4H-1,2,4-triazol-4-yl)benzoyl)piperazin-1-yl)-2-methylphenyl (2-(2,6-dioxopiperidin-3-yl)-1-oxoisoindolin-4-yl)carbamate] gave an IC50 (HER2) of 0.178 µM.
For CCNC(=O)c1nnc(-c2cc(C(C)C)c(O)cc2O)n1-c1ccc(Oc2ccc(C(=O)N3CCC(N(C)C(=O)Oc4ccc5nc6c(c(CC)c5c4)Cn4c-6cc5c(c4=O)COC(=O)C5(O)CC)CC3)cc2)cc1 (stereo not shown) [SDC-TRAP-0180, 4,11-Diethyl-4-hydroxy-3,14-dioxo-3,4,12,14-tetrahydro-1H-pyrano[3′,4′:6,7]indolizino[1,2-b]quinolin-9-yl (1-(4-(4-(3-(2,4-dihydroxy-5-isopropylphenyl)-5-(ethylcarbamoyl)-4H-1,2,4-triazol-4-yl)phenoxy)benzoyl)piperidin-4-yl)(methyl)carbamate], the “% Remaining (1 h)” value [1, 2] was 72.4%, the “% Remaining (1 h)” value ([1]; mouse plasma, 37° C., 10 μM) was 72.4% and the “% Remaining (1 h, 37° C.)” value ([1]; mouse plasma, 37° C.) was 72.4%. It also gave an IC50 (HER2) of 0.325 µM.
In the case of CCc1c2c(nc3ccc(OC(C)=O)cc13)-c1cc3c(c(=O)n1C2)COC(=O)C3(CC)OC(=O)N(C)CCCCN1CCN(Cc2ccc(-n3c(O)nnc3-c3cc(C(C)C)c(O)cc3O)cc2)CC1 (stereo not shown) [SDC-TRAP-0181, 4-(((4-(4-(4-(3-(2,4-Dihydroxy-5-isopropylphenyl)-5-hydroxy-4H-1,2,4-triazol-4-yl)benzyl)piperazin-1-yl)butyl)(methyl)carbamoyl)oxy)-4,11-diethyl-3,14-dioxo-3,4,12,14-tetrahydro-1H-pyrano[3′,4′:6,7]indolizino[1,2-b]quinolin-9-yl acetate], the IC50 (HER2) is reported as 0.164 µM.
For Cc1cc(COC(=O)Nc2cccc3c2CN(C2CCC(=O)NC2=O)C3=O)cc(C)c1OC(=O)N1CCN(Cc2ccc(-n3c(O)nnc3-c3cc(C(C)C)c(O)cc3O)cc2F)CC1 (stereo not shown) [SDC-TRAP-0182, 4-((((2-(2,6-dioxopiperidin-3-yl)-1-oxoisoindolin-4-yl)carbamoyl)oxy)methyl)-2,6-dimethylphenyl 4-(4-(3-(2,4-dihydroxy-5-isopropylphenyl)-5-hydroxy-4H-1,2,4-triazol-4-yl)-2-fluorobenzyl)piperazine-1-carboxylate], the “% Remaining (1 h)” value [1, 2] was 91.9% and the IC50 (HER2) was 0.359 µM.
With CCc1c2c(nc3ccc(OC(=O)N(C)C4CCN(C(=O)CCn5ccc6cc(-n7c(O)nnc7-c7cc(C(C)C)c(O)cc7O)ccc65)CC4)cc13)-c1cc3c(c(=O)n1C2)COC(=O)C3(O)CC (stereo not shown) [SDC-TRAP-0184, 4,11-diethyl-4-hydroxy-3,14-dioxo-3,4,12,14-tetrahydro-1H-pyrano[3′,4′:6,7]indolizino[1,2-b]quinolin-9-yl (1-(3-(5-(3-(2,4-dihydroxy-5-isopropylphenyl)-5-hydroxy-4H-1,2,4-triazol-4-yl)-1H-indol-1-yl)propanoyl)piperidin-4-yl)(methyl)carbamate] the “% Remaining (1 h)” value [1, 2] was 18.0%, the “% Remaining (1 h)” value ([1]; mouse plasma, 37° C., 10 μM) was 18.0% and the “% Remaining (1 h, 37° C.)” value ([1]; mouse plasma, 37° C.) was 18.0%. For the same compound, the IC50 (HER2) was 4 µM.
For CCNC(=O)c1nnc(-c2cc(C(C)C)c(O)cc2O)n1-c1ccc(CN2CCC(C(=O)N3CCN(C(=O)Oc4ccc5nc6c(c(CC)c5c4)Cn4c-6cc5c(c4=O)COC(=O)C5(O)CC)C(C)C3)CC2)cc1 (stereo not shown) [SDC-TRAP-0185, 4,11-diethyl-4-hydroxy-3,14-dioxo-3,4,12,14-tetrahydro-1H-pyrano[3′,4′:6,7]indolizino[1,2-b]quinolin-9-yl 4-(1-(4-(3-(2,4-dihydroxy-5-isopropylphenyl)-5-(ethylcarbamoyl)-4H-1,2,4-triazol-4-yl)benzyl)piperidine-4-carbonyl)-2-methylpiperazine-1-carboxylate], the “% Remaining (1 h)” value [1, 2] was 68.1%, the “% Remaining (1 h)” value ([1]; mouse plasma, 37° C., 10 μM) was 68.1% and the “% Remaining (1 h, 37° C.)” value ([1]; mouse plasma, 37° C.) was 68.1%. It also gave an IC50 (HER2) of 0.038 µM.
CCc1c2c(nc3ccc(OC(=O)N(C)CC(=O)N4CCC(CCn5ccc6cc(-n7c(O)nnc7-c7cc(C(C)C)c(O)cc7O)ccc65)CC4)cc13)-c1cc3c(c(=O)n1C2)COC(=O)[C@]3(O)CC [SDC-TRAP-0207, (S)-4,11-diethyl-4-hydroxy-3,14-dioxo-3,4,12,14-tetrahydro-1H-pyrano[3′,4′:6,7]indolizino[1,2-b]quinolin-9-yl (2-(4-(2-(5-(3-(2,4-dihydroxy-5-isopropylphenyl)-5-hydroxy-4H-1,2,4-triazol-4-yl)-1H-indol-1-yl)ethyl)piperidin-1-yl)-2-oxoethyl)(methyl)carbamate] gave an IC50 (HER2) of over 5 µM.
CCNC(=O)c1nnc(-c2cc(C(C)C)c(O)cc2O)n1-c1ccc(OC2CCN(C(=O)[C@@H]3CCCN3C(=O)O[C@]3(CC)C(=O)OCc4c3cc3n(c4=O)Cc4c-3nc3ccc(O)cc3c4CC)CC2)cc1 [SDC-TRAP-0214, (S)—(S)-4,11-diethyl-9-hydroxy-3,14-dioxo-3,4,12,14-tetrahydro-1H-pyrano[3′,4′:6,7]indolizino[1,2-b]quinolin-4-yl 2-(4-(4-(3-(2,4-dihydroxy-5-isopropylphenyl)-5-(ethylcarbamoyl)-4H-1,2,4-triazol-4-yl)phenoxy)piperidine-1-carbonyl)pyrrolidine-1-carboxylate] showed an IC50 (HER2) of over 5 µM.
